Assay results reported in PubChem BioAssay (NCI).
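Where inhibition never reached the appropriate level, the endpoint shown equals the highest concentration tested. Otherwise, values were interpolated linearly from a five-concentration, 48-hour dose response in 96-well plates. TGI: total growth inhibition.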

Columns and labels:
Assay in all cases: growth of human tumour cells (NCI), 48 h
786-0 renal = tested on: 786-0 renal
A498 renal = tested on: A498 renal
A549 NSCLC = tested on: A549 NSCLC
ACHN renal = tested on: ACHN renal
BT-549 breast = tested on: BT-549 breast
CAKI-1 renal = tested on: CAKI-1 renal
CCRF-CEM leukemia = tested on: CCRF-CEM leukemia
COLO 205 colon = tested on: COLO 205 colon
DU-145 prostate = tested on: DU-145 prostate
EKVX NSCLC = tested on: EKVX NSCLC
HCC-2998 colon = tested on: HCC-2998 colon
HCT-116 colon = tested on: HCT-116 colon
HCT-15 colon = tested on: HCT-15 colon
HL-60(TB) leukemia = tested on: HL-60(TB) leukemia
HOP-62 NSCLC = tested on: HOP-62 NSCLC
HOP-92 NSCLC = tested on: HOP-92 NSCLC
HS 578T breast = tested on: HS 578T breast
HT29 colon = tested on: HT29 colon
IGROV1 ovarian = tested on: IGROV1 ovarian
K-562 leukemia = tested on: K-562 leukemia
KM12 colon = tested on: KM12 colon
LOX IMVI melanoma = tested on: LOX IMVI melanoma
M14 melanoma = tested on: M14 melanoma
MALME-3M melanoma = tested on: MALME-3M melanoma
MCF7 breast = tested on: MCF7 breast
MDA-MB-231 breast = tested on: MDA-MB-231 breast
MDA-MB-435 = tested on: MDA-MB-435
MDA-N = tested on: MDA-N
MOLT-4 leukemia = tested on: MOLT-4 leukemia
NCI-H226 lung = tested on: NCI-H226 lung
NCI-H23 lung = tested on: NCI-H23 lung
NCI-H460 lung = tested on: NCI-H460 lung
NCI-H522 lung = tested on: NCI-H522 lung
NCI/ADR-RES ovarian = tested on: NCI/ADR-RES ovarian
OVCAR-3 ovarian = tested on: OVCAR-3 ovarian
OVCAR-4 ovarian = tested on: OVCAR-4 ovarian
OVCAR-5 ovarian = tested on: OVCAR-5 ovarian
OVCAR-8 ovarian = tested on: OVCAR-8 ovarian
PC-3 prostate = tested on: PC-3 prostate
RPMI-8226 leukemia = tested on: RPMI-8226 leukemia
RXF 393 renal = tested on: RXF 393 renal
SF-268 CNS = tested on: SF-268 CNS
SF-295 CNS = tested on: SF-295 CNS
SF-539 CNS = tested on: SF-539 CNS
SK-MEL-2 melanoma = tested on: SK-MEL-2 melanoma
SK-MEL-28 melanoma = tested on: SK-MEL-28 melanoma
SK-MEL-5 melanoma = tested on: SK-MEL-5 melanoma
SK-OV-3 ovarian = tested on: SK-OV-3 ovarian
SN12C renal = tested on: SN12C renal
SNB-19 CNS = tested on: SNB-19 CNS
SNB-75 CNS = tested on: SNB-75 CNS
SW-620 colon = tested on: SW-620 colon
T-47D breast = tested on: T-47D breast
TK-10 renal = tested on: TK-10 renal
U251 CNS = tested on: U251 CNS
UACC-257 melanoma = tested on: UACC-257 melanoma
UACC-62 melanoma = tested on: UACC-62 melanoma
UO-31 renal = tested on: UO-31 renal

`CN(C)CCNC1=CC(=O)c2c(O)ccc(O)c2C1=O` was tested, and the TGI (786-0 renal) was 15.4 µM, the TGI (A498 renal) was 28 µM and the TGI (A549 NSCLC) was 27.3 µM. It also gave a TGI (ACHN renal) of 25.8 µM, a TGI (BT-549 breast) of 31 µM and a TGI (CAKI-1 renal) of 27.3 µM. The TGI (CCRF-CEM leukemia) was 11.3 µM, the TGI (COLO 205 colon) was 3.63 µM and the TGI (DU-145 prostate) was 26.7 µM. For the same compound, the TGI (EKVX NSCLC) was 25.6 µM, the TGI (HCC-2998 colon) was 13.5 µM and the TGI (HCT-116 colon) was 9.05 µM. It also gave a TGI (HCT-15 colon) greater than 40.8 µM, a TGI (HL-60(TB) leukemia) of 6.53 µM and a TGI (HOP-62 NSCLC) of 30.3 µM. For the same compound, the TGI (HOP-92 NSCLC) was 27.8 µM, the TGI (HS 578T breast) was 53.6 µM and the TGI (HT29 colon) was 8.75 µM. The TGI (IGROV1 ovarian) was 16.7 µM, the TGI (K-562 leukemia) was greater than 100 µM and the TGI (KM12 colon) was 21.2 µM. For the same compound, the TGI (LOX IMVI melanoma) was 12.7 µM, the TGI (M14 melanoma) was 12.4 µM and the TGI (MALME-3M melanoma) was 2.62 µM. It also gave a TGI (MCF7 breast) of 7.27 µM, a TGI (MDA-MB-231 breast) of 25 µM and a TGI (MDA-MB-435) of 3.33 µM. It also gave a TGI (MDA-N) of 3.55 µM, a TGI (MOLT-4 leukemia) greater than 100 µM and a TGI (NCI-H226 lung) of 39.8 µM. For the same compound, the TGI (NCI-H23 lung) was 18.7 µM, the TGI (NCI-H460 lung) was 14.6 µM and the TGI (NCI-H522 lung) was 9.85 µM. For the same compound, the TGI (NCI/ADR-RES ovarian) was 7.78 µM, the TGI (OVCAR-3 ovarian) was 5.67 µM and the TGI (OVCAR-4 ovarian) was 15.7 µM. For the same compound, the TGI (OVCAR-5 ovarian) was 27.5 µM, the TGI (OVCAR-8 ovarian) was 25.9 µM and the TGI (PC-3 prostate) was 21.5 µM. It also gave a TGI (RPMI-8226 leukemia) greater than 68.2 µM, a TGI (RXF 393 renal) of 31.4 µM and a TGI (SF-268 CNS) of 28.1 µM. The TGI (SF-295 CNS) was 24.3 µM, the TGI (SF-539 CNS) was 20.6 µM and the TGI (SK-MEL-2 melanoma) was 25.3 µM. For the same compound, the TGI (SK-MEL-28 melanoma) was 26.3 µM, the TGI (SK-MEL-5 melanoma) was 3.28 µM and the TGI (SK-OV-3 ovarian) was 83.1 µM. The TGI (SN12C renal) was 21.5 µM, the TGI (SNB-19 CNS) was 31.6 µM and the TGI (SNB-75 CNS) was 31.9 µM. It also gave a TGI (SW-620 colon) of 10.1 µM, a TGI (T-47D breast) of 25.5 µM and a TGI (TK-10 renal) of 28 µM. The TGI (U251 CNS) was 24.4 µM, the TGI (UACC-257 melanoma) was 5.61 µM and the TGI (UACC-62 melanoma) was 5.63 µM. It also gave a TGI (UO-31 renal) of 17 µM.
